Laboratory results reported in ChEMBL document CHEMBL1201862, “PubChem BioAssay data set” (2004).
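Briefly, cells in 96-well plates were exposed to five compound concentrations for 48 h, and endpoints were estimated by linear interpolation. Here, GI50 denotes the concentration required for 50% inhibition of growth.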 Calls of active or inactive are those of the source. Rule as the data show it: active = GI50 up to about 1.1 µM and inactive = higher.

What was measured:
Experiment in all cases: inhibition of tumour cell growth, NCI panel, 48 h
K562 = test system: K562
UACC-62 = test system: UACC-62
MCF7 = test system: MCF7
NCI-H23 = test system: NCI-H23
HOP-62 = test system: HOP-62
CAKI-1 = test system: CAKI-1
SK-OV-3 = test system: SK-OV-3
RPMI-8226 = test system: RPMI-8226
SW-620 = test system: SW-620
COLO 205 = test system: COLO 205
MOLT-4 = test system: MOLT-4
SF-295 = test system: SF-295
IGROV-1 = test system: IGROV-1
CCRF-CEM = test system: CCRF-CEM
LOX IMVI = test system: LOX IMVI
HCT-15 = test system: HCT-15
SR = test system: SR
SNB-75 = test system: SNB-75
SN12C = test system: SN12C
MDA-N = test system: MDA-N
EKVX = test system: EKVX
T47D = test system: T47D
DU-145 = test system: DU-145
UACC-257 = test system: UACC-257
PC-3 = test system: PC-3
RXF 393 = test system: RXF 393
HCC 2998 = test system: HCC 2998
A549 = test system: A549
SK-MEL-5 = test system: SK-MEL-5
HT-29 = test system: HT-29
M14 = test system: M14
786-0 = test system: 786-0
OVCAR-8 = test system: OVCAR-8
HL-60 = test system: HL-60
SK-MEL-28 = test system: SK-MEL-28
KM12 = test system: KM12
MDA-MB-231 = test system: MDA-MB-231
Malme-3M = test system: Malme-3M
TK-10 = test system: TK-10
HCT-116 = test system: HCT-116
SNB-19 = test system: SNB-19
Hs-578T = test system: Hs-578T
SF-539 = test system: SF-539
SF-268 = test system: SF-268
NCI-H522 = test system: NCI-H522
MDA-MB-435 = test system: MDA-MB-435
OVCAR-5 = test system: OVCAR-5
OVCAR-3 = test system: OVCAR-3
U-251 = test system: U-251
OVCAR-4 = test system: OVCAR-4
ACHN = test system: ACHN
NCI/ADR-RES = test system: NCI/ADR-RES
A498 = test system: A498
UO-31 = test system: UO-31
HOP-92 = test system: HOP-92

SMILES | GI50 (K562) | GI50 (MCF7) | GI50 (NCI-H23) | GI50 (CAKI-1) | GI50 (SW-620) | GI50 (COLO 205) | GI50 (IGROV-1) | GI50 (CCRF-CEM) | GI50 (HCT-15) [µM] | GI50 (SN12C) | GI50 (MDA-N) | GI50 (EKVX) | GI50 (DU-145) | GI50 (PC-3) | GI50 (RXF 393) | GI50 (A549) | GI50 (M14) | GI50 (SK-MEL-28) | GI50 (KM12) | GI50 (SF-268) | also measured
CC(=O)OCC12CCC3C4(C)CCCC(C)(C)C4CCC3(C)C1CC(C1=CC(=O)OC1O)O2 (stereo not drawn) | 0.776 µM (active) | 1.24 µM (inactive) | 1.69 µM (inactive) | 1.49 µM (inactive) | 1.29 µM (inactive) | 1.83 µM (inactive) | 1.54 µM (inactive) | 0.303 µM (active) | 0.92 | 1.34 µM (inactive) | 1.53 µM (inactive) | 2.43 µM (inactive) | 2.07 µM (inactive) | 1.31 µM (inactive) | 2.06 µM (inactive) | 2.92 µM (inactive) | 1.42 µM (inactive) | 1.53 µM (inactive) | 1.82 µM (inactive) |  | GI50 (UACC-62): 1.8 µM (inactive); GI50 (HOP-62): 2.41 µM (inactive); GI50 (SK-OV-3): 2.47 µM (inactive); GI50 (RPMI-8226): 0.428 µM (active); GI50 (MOLT-4): 248 nM (active); GI50 (SF-295): 2.34 µM (inactive); GI50 (LOX IMVI): 1.18 µM (inactive); GI50 (SR): 244 nM (active); GI50 (SNB-75): 1.76 µM (inactive); GI50 (T47D): 1.88 µM (inactive); GI50 (UACC-257): 1.91 µM (inactive); GI50 (HCC 2998): 1.84 µM (inactive); GI50 (SK-MEL-5): 1.86 µM (inactive); GI50 (HT-29): 1.3 µM (inactive); GI50 (786-0): 1.09 µM (active); GI50 (OVCAR-8): 1.38 µM (inactive); GI50 (HL-60): 513 nM (active); GI50 (MDA-MB-231): 1.75 µM (inactive); GI50 (Malme-3M): 1.05 µM (active); GI50 (TK-10): 1.9 µM (inactive)
CCn1ncc(N=O)c1N | > 100 µM (inactive) |  | > 100 µM (inactive) |  |  | > 100 µM (inactive) | > 100 µM (inactive) | > 100 µM (inactive) |  |  | > 100 µM (inactive) |  |  |  |  | > 100 µM (inactive) | > 100 µM (inactive) |  | > 100 µM (inactive) | > 100 µM (inactive) | GI50 (RPMI-8226): > 100 µM (inactive); GI50 (HCT-116): > 100 µM (inactive); GI50 (SNB-19): > 100 µM (inactive); GI50 (Hs-578T): > 100 µM (inactive); GI50 (SF-539): > 100 µM (inactive); GI50 (NCI-H522): > 100 µM (inactive)
Cc1cc(/N=C/c2c(CO)cnc(C)c2O)c(/N=C/c2c(CO)cnc(C)c2O)cc1C | > 100 µM (inactive) | 75.9 µM (inactive) | > 100 µM (inactive) |  | > 100 µM (inactive) |  |  | 17 µM (inactive) | > 100 | > 100 µM (inactive) |  | > 100 µM (inactive) | > 100 µM (inactive) | > 100 µM (inactive) | > 100 µM (inactive) |  |  | > 100 µM (inactive) |  | > 100 µM (inactive) | GI50 (SK-OV-3): > 100 µM (inactive); GI50 (MDA-MB-435): > 100 µM (inactive); GI50 (OVCAR-5): > 100 µM (inactive); GI50 (OVCAR-3): > 100 µM (inactive); GI50 (SF-539): 95.9 µM (inactive); GI50 (T47D): > 100 µM (inactive); GI50 (UACC-257): > 100 µM (inactive); GI50 (U-251): > 100 µM (inactive); GI50 (NCI-H522): 78.9 µM (inactive); GI50 (Malme-3M): > 100 µM (inactive)
C[N+]12CCN(c3ccccc31)c1ccccc12.[O-][Cl+3]([O-])([O-])[O-] |  |  | 4.95 µM (inactive) | > 10 µM (inactive) | > 10 µM (inactive) | 7.73 µM (inactive) | > 10 µM (inactive) |  | > 10 | 7.28 µM (inactive) | 2.79 µM (inactive) | 6.15 µM (inactive) | > 10 µM (inactive) | > 10 µM (inactive) | > 10 µM (inactive) | 4.91 µM (inactive) | > 10 µM (inactive) | > 10 µM (inactive) | > 10 µM (inactive) | 4.79 µM (inactive) | GI50 (OVCAR-4): > 10 µM (inactive); GI50 (ACHN): > 10 µM (inactive); GI50 (MDA-MB-435): > 10 µM (inactive); GI50 (SF-295): 7.46 µM (inactive); GI50 (NCI/ADR-RES): > 10 µM (inactive); GI50 (OVCAR-5): > 10 µM (inactive); GI50 (A498): > 10 µM (inactive); GI50 (UO-31): > 10 µM (inactive); GI50 (SNB-19): > 10 µM (inactive); GI50 (SNB-75): 6.28 µM (inactive); GI50 (OVCAR-3): 3.44 µM (inactive); GI50 (U-251): 6.01 µM (inactive); GI50 (SK-MEL-5): 2.29 µM (inactive); GI50 (HT-29): > 10 µM (inactive); GI50 (OVCAR-8): 7.16 µM (inactive); GI50 (HOP-92): > 10 µM (inactive); GI50 (MDA-MB-231): > 10 µM (inactive); GI50 (TK-10): > 10 µM (inactive)
